This note sets out measurements from patent US20260272908A1 (VANDERBILT UNIVERSITY, priority 2023, published 2026).

One data set relates to wild-type mice. In words: Histopathology of major organs in wild-type mice. The data set is classed as in vivo, mouse. Conditions: 4 mg/L in drinking water, 2 weeks. As for the experimental part: Hematoxylin and eosin images were obtained from wild-type mice treated with either dimethyl sulfoxide (DMSO) or Pyr (4 mg/L in drinking water) for a duration of 2 weeks. Scale bar=100 μm.
(§1) One or two weeks after either DMSO or pyrvinium treatment, gastric mucosa in each group of mice was examined.

Data set [1] concerns Mist1-Kras mice. In words: Pyrvinium treatment of Mist1-Kras mice (metaplasia progression to dysplasia, gastric corpus histology and immunostaining). The data set is classed as in vivo, mouse. The note with it: pyrvinium 2 weeks, qRT-PCR. In general terms: In qPCR the cycle at which signal appears reflects the starting amount.
The subject of data set [2] is Mist1-Kras mice. The description is as above. The data set is classed as in vivo, mouse. As for the experimental part: FIG. 5B schematically illustrates the H&E (top) and immunostaining for UEA1 (middle) and Ki-67 (bottom) in the wild type mice treated with Pyr for 2 weeks and Mist1-Kras mice treated with DMSO or Pyr for 1 or 2 weeks. FIG. 5C schematically illustrates the quantitation of Ki-67-positive cells per 20× field. […] Mean±standard deviation. Unpaired t-test or one-way ANOVA with Tukey's multiple comparisons. ns, not significant. *P<0.05. **P<0.01. ***P<0.001. Scale bar=100 μM.
To prepare formaldehyde-fixed paraffin-embedded (FFPE) organoids/spheres, Matrigel domes containing organoids/spheres were fixed in 4% PFA at room temperature for 30 min. The fixed organoids were embedded in HistoGel™ (Thermo Fisher Scientific) followed by a wash in PBS for 1 min and processed according to a standard histological protocol for paraffin embedding. Human tissues were fixed in 10% neutral buffered formalin (NBF) for 1 week at room temperature and mouse tumor tissues were fixed in 4% paraformaldehyde (PFA) solution overnight at 4° C. The fixed tissues were transferred into 70% ethanol and processed according to a standard histological protocol for subsequent paraffin embedding. Four to five micrometers of organoid/sphere or tissue paraffin sections were de-paraffinized in Histoclear solution (Electron Microscopy Services) and rehydrated through a series of ethanol (100%, 95% and 75%).
Antigen retrieval was performed using a pH 6 or pH 9 target retrieval solution (Dako) in a pressure cooker for 15 min and cooled for 1 hour. For immunofluorescence staining, each section was incubated in serum-free protein block solution (Dako) at room temperature for 1.5 hours. Primary antibodies were diluted in Antibody Diluent with background reducing components (Dako) and applied to sections, then incubated overnight at 4° C. Slides were washed in PBS for 5 min three times and secondary antibodies diluted in Antibody Diluent (Dako) were applied to each section. Sections were incubated at room temperature for 1 hour and PBS with Hoechst (1:5000) was applied to the sections for 5 min for nuclei counterstaining. Slides were washed in PBS for 5 min three times, mounted with ProLong™ Gold Antifade Mountant (ThermoFisher) and cover slipped. All fluorescence images were acquired using a Zeiss Axio Imager M2 microscope with Axiovision digital imaging system or scanned using the Aperio Versa 200 Fluorescent Slide Scanner (Leica) at the Vanderbilt Digital Histology Shared Resource. Preparation and overlay of fluorescence images were performed using Adobe Photoshop.
For immunohistochemical staining, sections were blocked in Peroxidase Blocking Solution (Vector Laboratories) at room temperature for 20 min followed by serum-free protein block solution (Dako) at room temperature for 1.5 hours. Primary antibodies were diluted in Antibody Diluent with background reducing components (Dako) and applied to sections, then incubated overnight at 4° C. Horseradish-peroxidase (HRP)-conjugated secondary antibodies were applied to sections and incubated for 15 min at room temperature followed by three washes in PBS for 5 min each. ImmPRESS polymer detection reagent and ImmPACT DAB substrate kits (Vector Laboratories) were used for antibody detection. Images were scanned on a SCN400 slide scanner (Leica) at 20× magnification.
as §1

The test system of another data set is STAT3-target genes. In words: Quantitative real time-PCR for STAT3 target genes in Meta4 organoids. The data set is classed as cell-based, mouse. The note with it: pyrvinium 100 nM. How it is done: FIG. 3C-3D show the Western blot analysis for p-STAT3 and p-ERK in Meta3 and Meta4 organoids (FIG. 3C) and ratios of p-STAT3/total STAT3 and p-ERK/total ERK (FIG. 3D). […] FIG. 3F-3G show phase-contrast images of Meta4 organoids treated with DMSO, Pyr (100 nM), STAT3-IN-1 (1 μM), Stattic (2 μM), and Cryptotanshinone (CPT) (5 μM) for 3 days (FIG. 3F), and quantitation of organoid diameters before and after treatment (FIG. 3G). FIG. 3H-3I show phase-contrast images of Meta4 organoids treated with DMSO, trametinib (Tra), STAT3-IN-1, combination of Tra and STAT3-IN-1, and Pyr, for 3 days (FIG. 3H), and quantitation of organoid diameters before and after treatment (FIG. 3I). FIG. 3J-3K show western blot for p-STAT3 and p-ERK after treatment of Tra, Pyr, and SSTC3 (FIG. 3J) and ratios of p-STAT3/t-STAT3 and p-ERK/t-ERK (FIG. 3K). […] Relative quantification of each gene expression level was normalized to GAPDH gene expression. Shading scale represents the mRNA expression values. FIG. 3M show representative mRNA of Pim-1 and Cyclin-B1 after treatment. Mean±standard deviation. […] Scale bar=500 μM.
Two-tailed Mann-Whitney test.

[3] abbreviates: Mist1-Kras mice 3 months after tamoxifen, pyrvinium 1 or 2 weeks.
[4] abbreviates: Mist1-Kras mice, pyrvinium 2 weeks.

“Also recorded” adds a separate entry of the source.

For `Cc1cc(/C=C/c2ccc3cc(N(C)C)ccc3[n+]2C)c(C)n1-c1ccccc1` [pyrvinium], the “histopathology of major organs (stomach, esophagus, liver, kidney, heart, lung, spleen)” value with wild-type mice was “did not induce any noticeable histopathological abnormalities; also recorded: unaffected”. Besides, the “expression of myeloid-derived suppressor cell (MDSC)-related markers” value with Mist1-Kras mice [1] is recorded as “tended to increase, although the changes were not significant”. In the data set with Mist1-Kras mice [2] (setting [3]), the “acid-secreting parietal cells in corpus mucosa” value is recorded as “gradually repopulated the corpus mucosa”; the “number of hyperplastic foveolar glands with UEA1 and Ki-67 positive proliferating cells” value is “significantly decreased”. Also, in the data set on Mist1-Kras mice [2] (setting [4]), the “CD4^+ T cell population” value is listed as “dramatic decrease”, the “CD8^+ T cells” value is listed as “did not show a significant difference”, the “CD19^+ B cells” value is listed as “did not show a significant difference” and the “CD163-positive M2-macrophages” value is “significantly decreased”. Moreover, in the data set with Mist1-Kras mice [2] (setting [4]), the NK cells entry is “significantly decreased”; the “Pim-1 (immunostaining, gastric corpus)” value was “downregulation”; the “number of dysplastic glands” value is listed as “significant decrease”; the “p-STAT3 (immunostaining, gastric corpus)” value was “downregulation”. Moreover, in the data set on Mist1-Kras mice [2] (setting [4]), the “total number of CD3^+ T cells” value was “decreased”. Also, the “expression of several STAT3-target genes, including Cyclin B1 and Pim-1” value with STAT3-target genes is listed as “downregulated”.
